According to patent US6500624B1, “Kainate-binding, human CNS receptors of the EAA3 family” (NPS Allelix Corp., priority 1992, dated 2002):

Molecular target: T1, human EAA3a receptor (Homo sapiens, UniProt P39086)
T1 construct: To provide the entire coding region of the receptor; expressed in transfected cells; host or cells: COS-1 (monkey, ATCC CRL 1650), transient transfection with pcDNAIA/humEAA3a; membrane preparation
Assay: NMDA binding to membranes of EAA3a-producing COS cells
Details: EAA3a-producing COS cell membranes

T1 sequence (P39086 31-905 isoform P39086-2 limits assumed): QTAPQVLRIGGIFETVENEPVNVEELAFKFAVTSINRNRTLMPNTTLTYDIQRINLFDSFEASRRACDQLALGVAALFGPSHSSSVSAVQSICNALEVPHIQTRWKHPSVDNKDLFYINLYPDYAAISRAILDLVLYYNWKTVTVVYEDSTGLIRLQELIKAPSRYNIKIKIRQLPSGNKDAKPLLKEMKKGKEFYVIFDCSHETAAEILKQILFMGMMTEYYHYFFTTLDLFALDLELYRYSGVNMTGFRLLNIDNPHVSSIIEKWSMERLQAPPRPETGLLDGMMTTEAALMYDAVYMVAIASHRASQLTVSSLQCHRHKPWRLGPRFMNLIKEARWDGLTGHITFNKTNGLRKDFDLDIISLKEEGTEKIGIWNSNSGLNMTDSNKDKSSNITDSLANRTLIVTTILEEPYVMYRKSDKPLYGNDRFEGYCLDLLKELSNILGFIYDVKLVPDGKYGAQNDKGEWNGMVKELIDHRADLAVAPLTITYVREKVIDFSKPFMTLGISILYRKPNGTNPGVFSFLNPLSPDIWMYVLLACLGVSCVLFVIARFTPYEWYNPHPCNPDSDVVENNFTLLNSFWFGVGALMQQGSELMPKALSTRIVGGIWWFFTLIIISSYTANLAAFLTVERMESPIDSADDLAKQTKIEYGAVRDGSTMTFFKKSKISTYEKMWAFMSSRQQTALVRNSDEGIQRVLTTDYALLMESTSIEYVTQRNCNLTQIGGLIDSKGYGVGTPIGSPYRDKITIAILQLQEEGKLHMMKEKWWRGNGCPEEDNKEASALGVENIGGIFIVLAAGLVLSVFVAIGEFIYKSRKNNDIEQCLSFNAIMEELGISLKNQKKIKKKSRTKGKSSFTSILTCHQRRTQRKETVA

SMILES: CN[C@H](CC(=O)O)C(=O)O [NMDA, N-methyl-D-aspartate]
- binding of NMDA: little or no demonstrable binding
